Data: patent publication US10617693B2, “Methods of treating and/or preventing actinic keratosis” (Athenex, Inc., priority 2017, dated 2020)

Tested on: subjects with AK on the dorsal forearm
Assay: Phase 1 study KX01-AK-01-US: local skin reactions (investigator score 0 none to 4 severe; subject score 0 none to 3 severe) and adverse events
[1] = Cohort 1: 0.5 mg/25 cm^2 QD x3 days, N=4
[2] = Cohort 2: 2 mg/100 cm^2 QD x3 days, N=10
[3] = Cohort 3: 0.5 mg/25 cm^2 QD x5 days, N=8
[4] = Cohort 4: 2 mg/100 cm^2 QD x5 days, N=8

Protocol: A Phase 1, single-center, safety, tolerability and pharmacokinetic study of KX-01 was performed on subjects with AK on the dorsal forearm. This was an open-label, uncontrolled, nonrandomized, sequential group clinical trial conducted at a single investigational center in the United States. The primary objectives of the study were to assess the safety, tolerability and pharmacokinetics of KX-01 in subjects with AK. The secondary objective was to evaluate the activity of KX-01 administered topically to the dorsal forearm in subjects with AK.
KX-01 was administered topically on treatment days. All subjects were monitored for safety and tolerability that included LSRs, AEs, vital signs, clinical laboratory tests, ECGs, and physical examinations at baseline and at pre-defined time points during treatment and follow-up on days 1, 2, 3, 4, 5, 8, 10, 17, 31 and 45.
LSRs (erythema, flaking/scaling, crusting, swelling, vesiculation/pustulation, erosion/ulceration) were assessed by the investigator or trained designee using a 4-point scale according to the protocol. The subject's assessment of the symptoms (stinging/burning, pruritus) associated with irritation of the treatment area was evaluated on a 4-point scale (0=none, 1=mild, 2=moderate, 3=severe). Subjects were queried for spontaneously reported AEs at each study visit before assessment of LSRs. LSRs and AEs were reported separately. All LSRs were to be followed to resolution or stabilization.

O=C(Cc1ccc(-c2ccc(OCCN3CCOCC3)cc2)cn1)NCc1ccccc1 [KX-01]
Day LSRs tended to peak (3-day treatment cohorts (Cohorts 1 and 2)): ~5 days
Day LSRs tended to peak (5-day treatment cohorts (Cohorts 3 and 4)): ~10 days
Burning (subject-assessed) max score 0, number of subjects [1]: 4
Burning (subject-assessed) max score 1, number of subjects [1]: 0
Burning (subject-assessed) max score 2, number of subjects [1]: 0
Burning (subject-assessed) max score 3, number of subjects [1]: 0
Crusting max score 0, number of subjects [1]: 4
Crusting max score 1, number of subjects [1]: 0
Crusting max score 2, number of subjects [1]: 0
Crusting max score 3, number of subjects [1]: 0
Crusting max score 4, number of subjects [1]: 0
Erosions/ulcers max score 0, number of subjects [1]: 4
Erosions/ulcers max score 1, number of subjects [1]: 0
Erosions/ulcers max score 2, number of subjects [1]: 0
Erosions/ulcers max score 3, number of subjects [1]: 0
Erosions/ulcers max score 4, number of subjects [1]: 0
Erythema max score 0, number of subjects [1]: 0
Erythema max score 1, number of subjects [1]: 2
Erythema max score 2, number of subjects [1]: 1
Erythema max score 3, number of subjects [1]: 1
Erythema max score 4, number of subjects [1]: 0
Flaking/scaling max score 0, number of subjects [1]: 0
Flaking/scaling max score 1, number of subjects [1]: 3
Flaking/scaling max score 2, number of subjects [1]: 0
Flaking/scaling max score 3, number of subjects [1]: 1
Flaking/scaling max score 4, number of subjects [1]: 0
Pruritus (subject-assessed) max score 0, number of subjects [1]: 3
Pruritus (subject-assessed) max score 1, number of subjects [1]: 1
Pruritus (subject-assessed) max score 2, number of subjects [1]: 0
Pruritus (subject-assessed) max score 3, number of subjects [1]: 0
Stinging (subject-assessed) max score 0, number of subjects [1]: 3
Stinging (subject-assessed) max score 1, number of subjects [1]: 1
Stinging (subject-assessed) max score 2, number of subjects [1]: 0
Stinging (subject-assessed) max score 3, number of subjects [1]: 0
Swelling max score 0, number of subjects [1]: 4
Swelling max score 1, number of subjects [1]: 0
Swelling max score 2, number of subjects [1]: 0
Swelling max score 3, number of subjects [1]: 0
Swelling max score 4, number of subjects [1]: 0
Vesicles/pustules max score 0, number of subjects [1]: 4
Vesicles/pustules max score 1, number of subjects [1]: 0
Vesicles/pustules max score 2, number of subjects [1]: 0
Vesicles/pustules max score 3, number of subjects [1]: 0
Vesicles/pustules max score 4, number of subjects [1]: 0
Burning (subject-assessed) max score 0, number of subjects [2]: 6
Burning (subject-assessed) max score 1, number of subjects [2]: 3
Burning (subject-assessed) max score 2, number of subjects [2]: 1
Burning (subject-assessed) max score 3, number of subjects [2]: 0
Crusting max score 0, number of subjects [2]: 5
Crusting max score 1, number of subjects [2]: 5
Crusting max score 2, number of subjects [2]: 0
Crusting max score 3, number of subjects [2]: 0
Crusting max score 4, number of subjects [2]: 0
Erosions/ulcers max score 0, number of subjects [2]: 10
Erosions/ulcers max score 1, number of subjects [2]: 0
Erosions/ulcers max score 2, number of subjects [2]: 0
Erosions/ulcers max score 3, number of subjects [2]: 0
Erosions/ulcers max score 4, number of subjects [2]: 0
Erythema max score 0, number of subjects [2]: 0
Erythema max score 1, number of subjects [2]: 6
Erythema max score 2, number of subjects [2]: 2
Erythema max score 3, number of subjects [2]: 2
Erythema max score 4, number of subjects [2]: 0
Flaking/scaling max score 0, number of subjects [2]: 1
Flaking/scaling max score 1, number of subjects [2]: 2
Flaking/scaling max score 2, number of subjects [2]: 1
Flaking/scaling max score 3, number of subjects [2]: 6
Flaking/scaling max score 4, number of subjects [2]: 0
Pruritus (subject-assessed) max score 0, number of subjects [2]: 4
Pruritus (subject-assessed) max score 1, number of subjects [2]: 6
Pruritus (subject-assessed) max score 2, number of subjects [2]: 0
Pruritus (subject-assessed) max score 3, number of subjects [2]: 0
Stinging (subject-assessed) max score 0, number of subjects [2]: 8
Stinging (subject-assessed) max score 1, number of subjects [2]: 2
Stinging (subject-assessed) max score 2, number of subjects [2]: 0
Stinging (subject-assessed) max score 3, number of subjects [2]: 0
Swelling max score 0, number of subjects [2]: 8
Swelling max score 1, number of subjects [2]: 2
Swelling max score 2, number of subjects [2]: 0
Swelling max score 3, number of subjects [2]: 0
Swelling max score 4, number of subjects [2]: 0
Vesicles/pustules max score 0, number of subjects [2]: 10
Vesicles/pustules max score 1, number of subjects [2]: 0
Vesicles/pustules max score 2, number of subjects [2]: 0
Vesicles/pustules max score 3, number of subjects [2]: 0
Vesicles/pustules max score 4, number of subjects [2]: 0
Burning (subject-assessed) max score 0, number of subjects [3]: 4
Burning (subject-assessed) max score 1, number of subjects [3]: 3
Burning (subject-assessed) max score 2, number of subjects [3]: 1
Burning (subject-assessed) max score 3, number of subjects [3]: 0
Crusting max score 0, number of subjects [3]: 1
Crusting max score 1, number of subjects [3]: 7
Crusting max score 2, number of subjects [3]: 0
Crusting max score 3, number of subjects [3]: 0
Crusting max score 4, number of subjects [3]: 0
Erosions/ulcers max score 0, number of subjects [3]: 8
Erosions/ulcers max score 1, number of subjects [3]: 0
Erosions/ulcers max score 2, number of subjects [3]: 0
Erosions/ulcers max score 3, number of subjects [3]: 0
Erosions/ulcers max score 4, number of subjects [3]: 0
Erythema max score 0, number of subjects [3]: 0
Erythema max score 1, number of subjects [3]: 2
Erythema max score 2, number of subjects [3]: 4
Erythema max score 3, number of subjects [3]: 2
Erythema max score 4, number of subjects [3]: 0
Flaking/scaling max score 0, number of subjects [3]: 0
Flaking/scaling max score 1, number of subjects [3]: 2
Flaking/scaling max score 2, number of subjects [3]: 2
Flaking/scaling max score 3, number of subjects [3]: 4
Flaking/scaling max score 4, number of subjects [3]: 0
Pruritus (subject-assessed) max score 0, number of subjects [3]: 2
Pruritus (subject-assessed) max score 1, number of subjects [3]: 4
Pruritus (subject-assessed) max score 2, number of subjects [3]: 1
Pruritus (subject-assessed) max score 3, number of subjects [3]: 1
Stinging (subject-assessed) max score 0, number of subjects [3]: 6
Stinging (subject-assessed) max score 1, number of subjects [3]: 1
Stinging (subject-assessed) max score 2, number of subjects [3]: 1
Stinging (subject-assessed) max score 3, number of subjects [3]: 0
Swelling max score 0, number of subjects [3]: 4
Swelling max score 1, number of subjects [3]: 1
Swelling max score 2, number of subjects [3]: 0
Swelling max score 3, number of subjects [3]: 3
Swelling max score 4, number of subjects [3]: 0
Vesicles/pustules max score 0, number of subjects [3]: 8
Vesicles/pustules max score 1, number of subjects [3]: 0
Vesicles/pustules max score 2, number of subjects [3]: 0
Vesicles/pustules max score 3, number of subjects [3]: 0
Vesicles/pustules max score 4, number of subjects [3]: 0
Burning (subject-assessed) max score 0, number of subjects [4]: 4
Burning (subject-assessed) max score 1, number of subjects [4]: 4
Burning (subject-assessed) max score 2, number of subjects [4]: 0
Burning (subject-assessed) max score 3, number of subjects [4]: 0
Crusting max score 0, number of subjects [4]: 4
Crusting max score 1, number of subjects [4]: 4
Crusting max score 2, number of subjects [4]: 0
Crusting max score 3, number of subjects [4]: 0
Crusting max score 4, number of subjects [4]: 0
Erosions/ulcers max score 0, number of subjects [4]: 7
Erosions/ulcers max score 1, number of subjects [4]: 1
Erosions/ulcers max score 2, number of subjects [4]: 0
Erosions/ulcers max score 3, number of subjects [4]: 0
Erosions/ulcers max score 4, number of subjects [4]: 0
Erythema max score 0, number of subjects [4]: 0
Erythema max score 1, number of subjects [4]: 2
Erythema max score 2, number of subjects [4]: 4
Erythema max score 3, number of subjects [4]: 2
Erythema max score 4, number of subjects [4]: 0
Flaking/scaling max score 0, number of subjects [4]: 0
Flaking/scaling max score 1, number of subjects [4]: 2
Flaking/scaling max score 2, number of subjects [4]: 4
Flaking/scaling max score 3, number of subjects [4]: 2
Flaking/scaling max score 4, number of subjects [4]: 0
Pruritus (subject-assessed) max score 0, number of subjects [4]: 0
Pruritus (subject-assessed) max score 1, number of subjects [4]: 4
Pruritus (subject-assessed) max score 2, number of subjects [4]: 4
Pruritus (subject-assessed) max score 3, number of subjects [4]: 0
Stinging (subject-assessed) max score 0, number of subjects [4]: 5
Stinging (subject-assessed) max score 1, number of subjects [4]: 3
Stinging (subject-assessed) max score 2, number of subjects [4]: 0
Stinging (subject-assessed) max score 3, number of subjects [4]: 0
Swelling max score 0, number of subjects [4]: 1
Swelling max score 1, number of subjects [4]: 6
Swelling max score 2, number of subjects [4]: 1
Swelling max score 3, number of subjects [4]: 0
Swelling max score 4, number of subjects [4]: 0
Vesicles/pustules max score 0, number of subjects [4]: 8
Vesicles/pustules max score 1, number of subjects [4]: 0
Vesicles/pustules max score 2, number of subjects [4]: 0
Vesicles/pustules max score 3, number of subjects [4]: 0
Vesicles/pustules max score 4, number of subjects [4]: 0
Severity of TEAEs (all TEAEs): mild to moderate
Local tolerability (all cohorts): acceptable
Number of TEAEs (all cohorts): 10
Subjects reporting treatment emergent adverse events (TEAEs) (all cohorts): Four of 30
Subjects with a vesicle or pustule (all cohorts): No subject
Subjects with an LSR score of 4 in any category (all cohorts): No subject
Subjects with LSRs as assessed by the Investigator (all cohorts, 30 subjects): 30
Day by which application-site symptoms resolved (human, in vivo): ≤ 45 days
Nature of local skin reactions (human, in vivo): primarily mild
Day LSRs appeared (in general): 2 days
Subjects with erythema and/or flaking/scaling score 1 or 2 at day 45 (of 30 subjects): Fifteen
